Laboratory results from patent US10150737B2, “Compounds for controlling arthropods” (priority 2013, dated 2018).

Legend:
[1] = logP determination by HPLC on a reversed-phase column (C18); assay type: physicochemical; conditions: for logP^a): HPLC-MS method a); for log P: HPLC-MS; for logP: HPLC, C18 reversed phase, acetonitrile/water with formic acid, EEC Directive 79/831 Annex V.A8
[2] = test system: Boophilus microplus; experiment: Boophilus microplus - injection test; assay type: in vivo; conditions: application rate 20 μg/animal; injection into engorged adult female ticks; after 7 days
How it was run: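 Active ingredient in DMSO, 1 μl injected into the abdomen of 5 engorged adult female ticks, then held in a climate-controlled room. Efficacy scored after 7 days from laying of fertile eggs, with non-fertile-looking eggs kept about 42 days for larval hatch; 100% means no fertile eggs.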

[3] = test system: Ctenocephalides felis; experiment: Ctenocephalides felis - oral test; assay type: in vivo; conditions: application rate 100 ppm in citrated cattle blood; after 2 days
How it was run: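 Compound in DMSO diluted into citrated cattle blood, fed through a parafilm membrane to about 20 unfed adult cat fleas. Kill in % scored after 2 days (100% = all dead).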

[4] = test system: Lucilia cuprina; experiment: Lucilia cuprina test; assay type: in vivo; conditions: application rate 100 ppm; L1 larvae; after 2 days
How it was run: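 About 20 L1 larvae placed on minced horsemeat treated with compound, formulated in DMSO and diluted with water to test concentration. Kill in % scored after 2 days (100% = all larvae dead, 0% = none).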

[5] = test system: Musca domestica; experiment: Musca domestica test; assay type: in vivo; conditions: application rate 100 ppm; adult houseflies; after 2 days
Procedure: Solvent: dimethyl sulphoxide
To produce an appropriate active ingredient formulation, 10 mg of active ingredient are mixed with 0.5 ml of dimethyl sulphoxide, and the concentrate is diluted with water to the desired concentration.
Vessels containing a sponge treated with sugar solution and the active ingredient formulation of the desired concentration are populated with 10 adult houseflies (Musca domestica).
After 2 days, the kill in % is determined. 100% means that all of the flies have been killed; 0% means that none of the flies have been killed.

[6] = test system: Myzus persicae; experiment: Myzus persicae - spray test; assay type: in vivo; conditions: Chinese cabbage leaf discs, after 6 days
Procedure: Solvent: 78 parts by weight of acetone and 1.5 parts by weight of dimethylformamide
Emulsifier: alkylaryl polyglycol ether
To produce an appropriate active ingredient formulation, 1 part by weight of active ingredient is dissolved using the specified parts by weight of solvent and made up with water containing an emulsifier concentration of 1000 ppm until the desired concentration is attained. To produce further test concentrations, the preparation is diluted with emulsifier-containing water.
Discs of Chinese cabbage leaves (Brassica pekinensis) infested by all stages of the green peach aphid (Myzus persicae) are sprayed with an active ingredient formulation of the desired concentration.
After 6 days, efficacy in % is determined. 100% means that all the aphids have been killed; 0% means that none of the aphids have been killed.

[7] = test system: Phaedon cochleariae; experiment: Phaedon cochleariae - spray test; assay type: in vivo; conditions: larvae on Chinese cabbage leaf discs, after 7 days
How it was run: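 Chinese cabbage leaf discs sprayed with compound formulated in acetone/DMF and water containing 1000 ppm emulsifier; once dry, infested with mustard beetle larvae. Efficacy (% larvae killed) scored after 7 days.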

[8] = test system: Spodoptera frugiperda; experiment: Spodoptera frugiperda - spray test; assay type: in vivo; conditions: caterpillars on maize leaf discs, after 7 days
How it was run: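 Maize leaf discs sprayed with compound formulated in acetone/DMF and diluted in water containing 1000 ppm alkylaryl polyglycol ether emulsifier, then infested with armyworm caterpillars after drying. Efficacy scored after 7 days as % caterpillars killed (100% all, 0% none).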

[9] = test system: Tetranychus urticae; experiment: Tetranychus urticae - spray test, OP-resistant; assay type: in vivo; conditions: bean leaf discs, after 6 days
How it was run: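 Compound dissolved in acetone/DMF, diluted with water containing 1000 ppm alkylaryl polyglycol ether emulsifier to test concentrations. Bean leaf discs infested with all stages of spider mites were sprayed; % kill determined after 6 days (100% = all mites dead, 0% = none).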

[10] = test system: Ctenocephalides felis; experiment: Ctenocephalides felis - in vitro contact tests with adult cat fleas; assay type: in vivo; conditions: application rate 5 μg/cm2 (=500 g/ha); after 48 h; fleas dead or moribund
Procedure: For the coating of the test tubes, 9 mg of active ingredient are first dissolved in 1 ml of acetone p.a. and then diluted to the desired concentration with acetone p.a. 250 μl of the solution are distributed homogeneously on the inner walls and base of a 25 ml test tube by turning and rocking on an orbital shaker (rocking rotation at 30 rpm for 2 h). With 900 ppm active ingredient solution and internal surface area 44.7 cm^2, given homogeneous distribution, an area-based dose of 5 μg/cm^2 is achieved.
After the solvent has evaporated off, the tubes are populated with 5-10 adult cat fleas (Ctenocephalides felis), sealed with a perforated plastic lid and incubated in a horizontal position at room temperature and ambient humidity. After 48 h, efficacy is determined. To this end, the test tubes are stood upright and the fleas are knocked to the base of the tube. Fleas which remain motionless at the base or move in an uncoordinated manner are considered to be dead or moribund.
100% efficacy means that all the fleas were dead or moribund. 0% efficacy means that no fleas were harmed.

[11] = reversed-phase column (C18), Table I-T3

| SMILES | logP^a) [1] | logP^a) [1, 11] | efficacy (laying of fertile eggs) [2] | efficacy (kill) [3] | efficacy (kill) [4] | efficacy (kill) [5] | efficacy ([6]; application rate 500 g/ha) | efficacy ([7]; application rate 500 g/ha) | efficacy ([8]; application rate 500 g/ha) | efficacy ([9]; application rate 500 g/ha) | efficacy [10] | efficacy ([7]; application rate 100 g/ha) | efficacy ([8]; application rate 100 g/ha) | efficacy ([9]; application rate 100 g/ha) | logP^a) ([1]; reversed-phase column (C18)) | log P [1, 11] | efficacy ([6]; application rate 100 g/ha) | logP [1] |
| --- | --- | --- | --- | --- | --- | --- | --- | --- | --- | --- | --- | --- | --- | --- | --- | --- | --- | --- |
| Cc1cc(C(F)(C(F)(F)F)C(F)(F)F)cc(C)c1-n1cc(-c2cncc(C(=O)NC3(C#N)CC3)c2)cn1 [I-T3-8] | 3.4 | 3.4 | 100% | 100% | 100% | 100% | 90% | 100% | 100% | 100% | – | – | – | – | – | – | – | – |
| Cc1cc(C(F)(C(F)(F)F)C(F)(F)F)cc(C)c1-n1cc(-c2cccc(C(=O)NC3CC3)c2F)cn1 [I-T3-9] | 4.3 | 4.3 | 100% | 100% | 100% | – | – | 100% | 100% | 100% | 100% | – | – | – | – | – | – | – |
| O=C(NC1CC1)c1cc(-c2cnn(-c3ccc(C(F)(C(F)(F)F)C(F)(F)F)cc3Cl)c2)ccc1Cl [I-T3-31] | 4.3 | 4.3 | 100% | 100% | 100% | 100% | – | 100% | 100% | 100% | 100% | – | – | – | – | – | – | – |
| Cc1cc(C(F)(C(F)(F)F)C(F)(F)F)cc(C(F)(F)F)c1-n1cc(-c2ccc(Cl)c(C(=O)NCC(F)(F)F)c2)cn1 [I-T3-84] | 4.7 | 4.7 | 100% | 100% | 100% | 100% | – | – | – | – | 100% | 100% | 100% | 100% | – | – | – | – |
| O=C(NC1CC1)c1cccc(-c2cnn(-c3ncc(C(F)(F)F)cc3Cl)c2)c1 [I-T3-122] | – | – | – | – | – | – | 100% | – | – | – | – | – | – | – | 3.0 | 3.0 | – | – |
| CNc1ncc(-c2cnn(-c3c(Cl)cc(C(F)(C(F)(F)F)C(F)(F)F)cc3Cl)c2)cc1C(=O)NC1CC1 [I-T3-136] | – | – | 100% | 100% | 100% | 100% | – | – | – | – | 100% | 100% | 100% | – | 3.5 | 3.5 | – | – |
| O=C(NC1CC1)c1cc(-c2cnn(-c3c(Cl)cc(C(F)(C(F)(F)F)C(F)(F)F)cc3Cl)c2)cnc1NC1CC1 [I-T3-137] | – | – | 100% | 100% | 80% | 100% | – | – | – | – | 100% | 100% | 100% | 90% | 3.4 | 3.4 | – | – |
| CCSc1cc(C(F)(F)F)cc(Cl)c1-n1cc(-c2ccc(Cl)c(C(=O)NC3(C#N)CC3)c2)cn1 [I-T3-170] | – | – | – | – | – | – | – | – | – | – | – | 100% | 100% | 100% | – | 3.7 | 100% | – |
| N#Cc1cc(C(F)(F)F)cc(Cl)c1-n1cc(-c2ccc(Cl)c(C(=O)NC3CC3)c2)cn1 [I-T3-174] | – | – | – | – | – | – | – | – | – | – | – | 100% | 100% | 100% | – | 3.1 | 100% | – |
| CC[S+]([O-])c1cc(C(F)(F)F)cc(Cl)c1-n1cc(-c2ccc(Cl)c(C(=O)NC3CC3)c2)cn1 (centres unmarked) [I-T3-179] | – | – | – | – | – | – | – | – | – | – | – | 100% | – | 100% | – | 3.0 | 100% | – |
| O=C(NC1CC1)c1cc(-c2cnn(-c3c(F)cc(C(F)(F)F)cc3Cl)c2)ccc1Cl [I-T3-186] | – | – | – | – | – | – | 90% | 100% | 100% | 100% | – | – | – | – | – | 3.6 | – | – |
| N#CC1(NC(=O)c2cc(-c3cnn(-c4c(F)cc(C(F)(F)F)cc4Cl)c3)ccc2Cl)CC1 [I-T3-187] | – | – | – | – | – | – | 100% | 100% | 100% | 100% | – | – | – | – | – | 3.3 | – | – |
| Cc1cc(C(F)(C(F)(F)F)C(F)(F)F)cc(C)c1-c1cc(-c2ccc(Cl)c(C(=O)NCC(F)(F)F)c2)on1 [I-T22-3] | – | – | 100% | 100% | 100% | 100% | – | – | – | – | 100% | 100% | 100% | 90% | – | – | – | 5 |
| N#CC1(NC(=O)c2cc(-c3cc(-c4c(Cl)cc(C(F)(C(F)(F)F)C(F)(F)F)cc4Cl)on3)ccc2Cl)CC1 [I-T23-2] | – | – | 100% | 100% | 100% | 100% | – | 100% | 100% | 100% | 100% | – | – | – | – | – | – | 4.8 |
| Cc1cc(C(F)(C(F)(F)F)C(F)(F)F)cc(C)c1-n1ccc(-c2ccc(Cl)c(C(=O)NC3CC3)c2)c1 [I-T46-2] | – | – | 100% | 100% | 100% | – | – | – | – | – | 100% | 100% | 100% | – | – | – | – | 5.0 |
